The target in assay [1] is T1, Ephrin type-B receptor 3 (Homo sapiens) (UniProt P54753).
T1 sequence (whole entry): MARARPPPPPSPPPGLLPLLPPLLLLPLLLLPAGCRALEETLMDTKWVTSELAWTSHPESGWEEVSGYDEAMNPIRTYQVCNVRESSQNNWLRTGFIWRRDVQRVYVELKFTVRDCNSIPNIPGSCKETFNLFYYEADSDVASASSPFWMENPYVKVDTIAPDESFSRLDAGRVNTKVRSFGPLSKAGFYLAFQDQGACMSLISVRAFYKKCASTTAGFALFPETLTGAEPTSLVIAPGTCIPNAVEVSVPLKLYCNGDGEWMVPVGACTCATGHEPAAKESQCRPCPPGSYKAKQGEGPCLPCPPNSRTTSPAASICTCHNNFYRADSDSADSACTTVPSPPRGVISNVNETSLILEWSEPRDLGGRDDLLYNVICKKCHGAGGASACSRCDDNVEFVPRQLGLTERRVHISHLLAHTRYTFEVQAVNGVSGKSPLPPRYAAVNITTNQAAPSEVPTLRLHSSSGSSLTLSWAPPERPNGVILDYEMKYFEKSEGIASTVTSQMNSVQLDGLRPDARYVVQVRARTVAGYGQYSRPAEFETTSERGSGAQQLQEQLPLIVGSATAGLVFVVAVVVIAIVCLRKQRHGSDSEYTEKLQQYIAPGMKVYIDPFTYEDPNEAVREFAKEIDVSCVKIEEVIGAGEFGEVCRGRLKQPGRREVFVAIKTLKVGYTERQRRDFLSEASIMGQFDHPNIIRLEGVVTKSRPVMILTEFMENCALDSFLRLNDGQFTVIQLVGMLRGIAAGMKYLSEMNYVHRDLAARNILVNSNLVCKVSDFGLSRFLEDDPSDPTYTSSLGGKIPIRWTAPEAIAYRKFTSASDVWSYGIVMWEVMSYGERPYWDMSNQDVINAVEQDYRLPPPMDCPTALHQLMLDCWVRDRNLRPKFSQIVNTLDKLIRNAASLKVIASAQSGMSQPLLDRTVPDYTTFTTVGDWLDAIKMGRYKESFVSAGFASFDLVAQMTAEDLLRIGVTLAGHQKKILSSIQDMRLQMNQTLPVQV
Conditions: Compound concentration 1000.0 nM.

For assay [2], the target named is Serine/threonine-protein kinase PAK 1 (Homo sapiens) (UniProt Q13153). To be noted: Compound concentration 1000.0 nM.
Sequence of Serine/threonine-protein kinase PAK 1 (Homo sapiens) (Q13153 whole entry): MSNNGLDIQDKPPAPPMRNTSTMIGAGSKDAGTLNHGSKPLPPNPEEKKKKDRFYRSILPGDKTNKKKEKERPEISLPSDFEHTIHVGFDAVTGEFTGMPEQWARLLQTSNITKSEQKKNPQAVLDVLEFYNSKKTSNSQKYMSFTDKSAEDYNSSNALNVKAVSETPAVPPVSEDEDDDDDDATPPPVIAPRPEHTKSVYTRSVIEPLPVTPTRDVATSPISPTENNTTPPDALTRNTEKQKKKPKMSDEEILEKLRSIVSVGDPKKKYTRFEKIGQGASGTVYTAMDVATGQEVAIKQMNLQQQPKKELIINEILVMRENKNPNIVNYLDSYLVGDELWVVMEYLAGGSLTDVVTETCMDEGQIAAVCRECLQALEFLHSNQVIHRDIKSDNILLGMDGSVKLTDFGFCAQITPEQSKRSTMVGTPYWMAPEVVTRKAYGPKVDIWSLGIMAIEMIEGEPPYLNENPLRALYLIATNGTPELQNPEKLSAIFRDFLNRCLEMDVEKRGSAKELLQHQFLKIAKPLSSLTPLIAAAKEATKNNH
In assay [3] the target is Platelet-derived growth factor receptor alpha (Homo sapiens) (UniProt P16234). Conditions: Compound concentration 1000.0 nM.
Sequence of Platelet-derived growth factor receptor alpha (Homo sapiens) (P16234 whole entry): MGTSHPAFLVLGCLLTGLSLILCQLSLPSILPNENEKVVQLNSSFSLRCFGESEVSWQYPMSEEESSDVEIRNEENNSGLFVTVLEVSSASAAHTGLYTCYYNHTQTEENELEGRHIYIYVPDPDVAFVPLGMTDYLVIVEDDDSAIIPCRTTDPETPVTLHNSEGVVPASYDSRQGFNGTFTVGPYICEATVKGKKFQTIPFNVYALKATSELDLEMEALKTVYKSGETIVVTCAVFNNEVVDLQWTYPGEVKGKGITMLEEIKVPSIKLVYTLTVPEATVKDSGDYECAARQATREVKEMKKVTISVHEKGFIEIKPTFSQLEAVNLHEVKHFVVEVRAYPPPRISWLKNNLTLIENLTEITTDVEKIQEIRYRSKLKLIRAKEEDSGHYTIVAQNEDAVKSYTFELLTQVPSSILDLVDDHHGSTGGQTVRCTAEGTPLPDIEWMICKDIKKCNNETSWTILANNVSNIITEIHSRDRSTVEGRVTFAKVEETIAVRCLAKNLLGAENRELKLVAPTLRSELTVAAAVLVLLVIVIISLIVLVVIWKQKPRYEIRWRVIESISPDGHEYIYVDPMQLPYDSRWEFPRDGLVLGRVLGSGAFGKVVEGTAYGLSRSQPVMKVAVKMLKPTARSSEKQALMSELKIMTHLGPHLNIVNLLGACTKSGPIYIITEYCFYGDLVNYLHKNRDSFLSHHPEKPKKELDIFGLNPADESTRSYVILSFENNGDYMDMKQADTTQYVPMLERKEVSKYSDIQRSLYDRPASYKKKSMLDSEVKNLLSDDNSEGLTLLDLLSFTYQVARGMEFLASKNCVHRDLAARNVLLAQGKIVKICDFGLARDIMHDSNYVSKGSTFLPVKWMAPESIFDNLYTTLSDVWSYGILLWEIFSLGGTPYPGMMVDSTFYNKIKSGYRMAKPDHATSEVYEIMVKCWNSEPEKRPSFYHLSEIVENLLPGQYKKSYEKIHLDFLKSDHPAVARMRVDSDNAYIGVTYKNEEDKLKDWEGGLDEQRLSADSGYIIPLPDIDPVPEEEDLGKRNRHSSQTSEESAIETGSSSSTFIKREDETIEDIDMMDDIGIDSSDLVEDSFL
In assay [4] the target is T2, Serine/threonine-protein kinase ULK1 (Homo sapiens) (UniProt O75385).
T2 sequence (whole entry): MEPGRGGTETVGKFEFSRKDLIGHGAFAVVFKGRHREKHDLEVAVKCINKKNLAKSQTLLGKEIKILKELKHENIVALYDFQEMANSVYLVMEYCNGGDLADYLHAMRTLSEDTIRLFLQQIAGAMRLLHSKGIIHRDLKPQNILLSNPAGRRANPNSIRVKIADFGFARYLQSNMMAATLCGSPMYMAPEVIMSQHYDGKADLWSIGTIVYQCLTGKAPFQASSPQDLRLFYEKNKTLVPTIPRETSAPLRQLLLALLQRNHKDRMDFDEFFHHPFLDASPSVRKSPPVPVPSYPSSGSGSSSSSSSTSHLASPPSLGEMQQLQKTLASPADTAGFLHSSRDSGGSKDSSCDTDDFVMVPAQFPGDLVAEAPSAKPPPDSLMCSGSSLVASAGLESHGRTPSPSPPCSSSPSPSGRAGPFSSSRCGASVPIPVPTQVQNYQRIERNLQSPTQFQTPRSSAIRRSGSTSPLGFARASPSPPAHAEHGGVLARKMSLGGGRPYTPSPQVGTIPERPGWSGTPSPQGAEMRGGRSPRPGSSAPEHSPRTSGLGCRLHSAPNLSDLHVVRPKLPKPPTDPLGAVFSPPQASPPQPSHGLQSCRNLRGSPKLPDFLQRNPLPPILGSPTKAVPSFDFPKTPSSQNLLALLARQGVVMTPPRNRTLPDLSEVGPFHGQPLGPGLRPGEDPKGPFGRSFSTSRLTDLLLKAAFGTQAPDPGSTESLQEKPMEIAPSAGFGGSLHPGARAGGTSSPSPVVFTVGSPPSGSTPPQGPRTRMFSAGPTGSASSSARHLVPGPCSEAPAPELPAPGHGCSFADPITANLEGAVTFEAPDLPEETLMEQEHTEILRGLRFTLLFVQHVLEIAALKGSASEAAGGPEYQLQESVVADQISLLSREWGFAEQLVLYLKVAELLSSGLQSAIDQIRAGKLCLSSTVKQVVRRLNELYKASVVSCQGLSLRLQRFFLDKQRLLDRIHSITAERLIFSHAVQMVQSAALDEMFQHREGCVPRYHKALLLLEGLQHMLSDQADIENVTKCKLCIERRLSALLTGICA
Conditions: Compound concentration 1000.0 nM.

For assay [5], the target named is Serine/threonine-protein kinase 10 (Homo sapiens) (UniProt O94804). The assay can be described thus: LOK(h) Eurofins kinase panel. Conditions: Compound concentration 1.0 uM.
Sequence of Serine/threonine-protein kinase 10 (Homo sapiens) (O94804 whole entry, looked up): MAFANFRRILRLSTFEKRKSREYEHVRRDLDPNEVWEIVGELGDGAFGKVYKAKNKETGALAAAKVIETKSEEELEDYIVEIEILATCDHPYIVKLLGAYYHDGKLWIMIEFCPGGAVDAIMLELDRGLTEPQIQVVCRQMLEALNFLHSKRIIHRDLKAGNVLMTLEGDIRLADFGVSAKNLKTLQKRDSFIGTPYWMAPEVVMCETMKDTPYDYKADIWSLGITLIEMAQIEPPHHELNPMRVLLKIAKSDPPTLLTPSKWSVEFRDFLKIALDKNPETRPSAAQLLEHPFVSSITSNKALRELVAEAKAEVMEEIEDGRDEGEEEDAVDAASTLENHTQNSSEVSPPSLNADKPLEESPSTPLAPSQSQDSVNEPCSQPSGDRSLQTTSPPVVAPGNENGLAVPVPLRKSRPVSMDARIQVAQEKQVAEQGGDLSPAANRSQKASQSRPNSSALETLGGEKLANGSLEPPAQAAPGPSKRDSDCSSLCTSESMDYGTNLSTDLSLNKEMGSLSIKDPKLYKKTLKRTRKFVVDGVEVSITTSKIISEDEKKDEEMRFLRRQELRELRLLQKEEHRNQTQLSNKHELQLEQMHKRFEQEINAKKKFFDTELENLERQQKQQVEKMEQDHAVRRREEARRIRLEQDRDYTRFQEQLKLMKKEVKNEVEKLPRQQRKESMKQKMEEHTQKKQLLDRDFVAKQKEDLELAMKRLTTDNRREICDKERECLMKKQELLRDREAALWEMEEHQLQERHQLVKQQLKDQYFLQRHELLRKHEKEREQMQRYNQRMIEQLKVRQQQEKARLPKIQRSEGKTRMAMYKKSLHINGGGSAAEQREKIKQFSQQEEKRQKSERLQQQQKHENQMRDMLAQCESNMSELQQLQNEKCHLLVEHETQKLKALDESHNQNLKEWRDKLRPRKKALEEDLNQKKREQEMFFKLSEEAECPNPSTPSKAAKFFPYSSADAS
Assay [6] addresses MAP kinase-activated protein kinase 3 (Homo sapiens) (UniProt Q16644). The assay can be described thus: MAPKAP-K3(h) Eurofins kinase panel. To be noted: Compound concentration 1.0 uM.
Assay [7] concerns the target T3, NUAK family SNF1-like kinase 2 (Homo sapiens) (UniProt Q9H093).
T3 sequence (whole entry): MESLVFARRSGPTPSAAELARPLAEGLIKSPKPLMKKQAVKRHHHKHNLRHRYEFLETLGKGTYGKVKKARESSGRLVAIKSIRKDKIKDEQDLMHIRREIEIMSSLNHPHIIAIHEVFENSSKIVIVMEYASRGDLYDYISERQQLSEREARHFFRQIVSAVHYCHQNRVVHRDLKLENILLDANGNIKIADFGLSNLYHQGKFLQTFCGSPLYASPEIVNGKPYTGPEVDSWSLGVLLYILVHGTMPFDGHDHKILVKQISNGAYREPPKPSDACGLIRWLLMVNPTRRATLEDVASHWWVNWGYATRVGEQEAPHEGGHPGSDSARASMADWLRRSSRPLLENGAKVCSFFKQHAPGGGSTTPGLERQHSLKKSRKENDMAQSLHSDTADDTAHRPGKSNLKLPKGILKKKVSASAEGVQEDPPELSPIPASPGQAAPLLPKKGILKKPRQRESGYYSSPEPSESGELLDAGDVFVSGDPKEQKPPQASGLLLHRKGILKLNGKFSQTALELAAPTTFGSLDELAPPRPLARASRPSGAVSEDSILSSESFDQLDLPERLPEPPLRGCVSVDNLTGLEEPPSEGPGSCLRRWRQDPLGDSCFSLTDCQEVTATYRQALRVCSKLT
Briefly: NUAK2(h) Eurofins kinase panel. To be noted: Compound concentration 1.0 uM.

For assay [8], the target named is Phosphatidylinositol 4,5-bisphosphate 3-kinase catalytic subunit gamma isoform (Homo sapiens) (UniProt P48736). The assay can be described thus: PI3 Kinase (p120g)(h) Eurofins kinase panel. Conditions: Compound concentration 1.0 uM.
Sequence of Phosphatidylinositol 4,5-bisphosphate 3-kinase catalytic subunit gamma isoform (Homo sapiens) (P48736 whole entry, looked up, canonical isoform): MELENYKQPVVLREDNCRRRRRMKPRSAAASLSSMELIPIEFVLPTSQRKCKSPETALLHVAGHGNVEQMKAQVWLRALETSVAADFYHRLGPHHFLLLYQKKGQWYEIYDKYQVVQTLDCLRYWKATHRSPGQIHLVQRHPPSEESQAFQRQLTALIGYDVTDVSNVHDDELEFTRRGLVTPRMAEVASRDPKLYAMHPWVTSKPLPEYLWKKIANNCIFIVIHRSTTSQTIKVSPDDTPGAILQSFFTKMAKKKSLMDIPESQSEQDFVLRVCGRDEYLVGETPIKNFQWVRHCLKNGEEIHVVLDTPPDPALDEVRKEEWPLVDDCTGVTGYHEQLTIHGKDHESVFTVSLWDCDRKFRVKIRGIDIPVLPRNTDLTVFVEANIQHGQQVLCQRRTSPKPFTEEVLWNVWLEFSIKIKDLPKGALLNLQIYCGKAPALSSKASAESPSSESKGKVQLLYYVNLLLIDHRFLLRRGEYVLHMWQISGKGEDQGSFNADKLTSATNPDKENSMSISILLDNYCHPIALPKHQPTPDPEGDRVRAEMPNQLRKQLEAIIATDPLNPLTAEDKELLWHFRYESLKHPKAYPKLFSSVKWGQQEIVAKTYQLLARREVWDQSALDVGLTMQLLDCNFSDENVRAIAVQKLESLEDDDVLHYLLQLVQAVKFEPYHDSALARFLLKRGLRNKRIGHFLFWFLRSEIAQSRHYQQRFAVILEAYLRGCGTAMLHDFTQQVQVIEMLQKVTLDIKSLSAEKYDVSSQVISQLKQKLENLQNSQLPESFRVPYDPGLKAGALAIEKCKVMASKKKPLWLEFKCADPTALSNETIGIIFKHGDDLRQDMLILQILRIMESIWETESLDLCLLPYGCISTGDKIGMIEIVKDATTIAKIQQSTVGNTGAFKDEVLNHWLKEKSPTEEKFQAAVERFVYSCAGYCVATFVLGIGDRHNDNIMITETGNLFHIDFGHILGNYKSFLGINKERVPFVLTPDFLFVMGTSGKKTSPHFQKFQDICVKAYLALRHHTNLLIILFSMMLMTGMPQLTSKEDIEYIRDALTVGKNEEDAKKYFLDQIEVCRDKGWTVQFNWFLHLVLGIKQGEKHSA
A further assay has as its system MDA-MB-453. The assay can be described thus: MDA-MB- 453 cell line Proliferation assay. It is filed as functional, Homo sapiens. To be noted: time 3 day.

One may read the residual activity as what remains of the control signal, in per cent.

Sequence of MAP kinase-activated protein kinase 3 (Homo sapiens) (Q16644 whole entry, looked up): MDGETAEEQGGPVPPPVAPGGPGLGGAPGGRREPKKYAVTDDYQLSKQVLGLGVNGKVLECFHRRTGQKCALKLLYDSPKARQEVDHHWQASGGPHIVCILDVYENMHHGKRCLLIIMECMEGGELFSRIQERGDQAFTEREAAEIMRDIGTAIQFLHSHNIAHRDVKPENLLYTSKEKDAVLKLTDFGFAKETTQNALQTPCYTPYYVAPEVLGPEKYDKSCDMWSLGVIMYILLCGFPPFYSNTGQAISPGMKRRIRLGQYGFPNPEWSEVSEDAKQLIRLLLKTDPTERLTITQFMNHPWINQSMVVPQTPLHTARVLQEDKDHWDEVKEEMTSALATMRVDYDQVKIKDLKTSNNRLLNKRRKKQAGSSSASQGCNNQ

For the compound `CC1=C(C#N)C(c2ccc3c(c2)c(NC(=O)c2ccccc2C)nn3C)C(C#N)=C(C)N1` [BAY-974], the residual activity in [1] was 99%; in assay [2] it was 100%; in assay [3], 86%; in [4], 86%.

Turning to `CCc1ccccc1C(=O)Nc1n[nH]c2c(C)c(F)c(C3C(C#N)=C(C)N(C)C(C)=C3C#N)cc12` [BAY-3827], the % residual kinase activity in assay [5] was 88%; in [6], 106%; in assay [7], 45%; in assay [8], 99%. Also, the “Cell Proliferation IC50” value with MDA-MB-453 was 14.6 µM. Moreover, the residual activity in assay [1] is 57%; in assay [2] it was 82%; in assay [3], 100%; in assay [4], 29%.
